This is an account of results in patent US11179367B2, “Pharmaceutical compositions for treating cystic fibrosis” (Vertex Pharmaceuticals Incorporated, priority 2018, dated 2021).

The target of data set [1] is T1, F508del CFTR in NIH3T3 cells (Homo sapiens, UniProt P13569, DEL508-508).
T1 construct: expressed in transfected cells
Nature of the data set: Membrane potential optical assay (correction assay) for F508del-CFTR modulators. Particulars: NIH3T3 cells expressing F508del. In kind it is cell-based. From the text:
Membrane Potential Optical Methods for Assaying Properties of F508del-CFTR Modulators
An optical assay was employed to measure changes in membrane potential to determine the CFTR modulator properties of compounds. The assay utilized fluorescent voltage sensing dyes to measure changes in membrane potential using a fluorescent plate reader (e.g., FLIPR III, Molecular Devices, Inc.) as a readout for increase in functional F508del in NIH 3T3 cells. The driving force for the response was the creation of a chloride ion gradient in conjunction with channel activation and concurrent with compound treatment by a single liquid addition step after the cells had previously been loaded with a voltage sensing dye.
NIH3T3 mouse fibroblasts stably expressing F508del were used for optical measurements of membrane potential. The cells were maintained at 37° C. in 5% CO2 and 90% humidity in Dulbecco's modified Eagle's medium supplemented with 2 mM glutamine, 10% fetal bovine serum, 1×NEAA, β-ME, 1×pen/strep, and 25 mM HEPES in 175 cm^2 culture flasks. […] The cells were then activated and treated with Compound I. After 18-24 hours, fluorescence from the voltage sensing dye in the cells was measured to assess changes in the membrane potential as a read out for increase in functional F508del CFTR in the NIH3T3 cells.

Data set [2] has as its target T2, F508del-CFTR in human bronchial epithelial (HBE) cells (Homo sapiens, UniProt P13569, DEL508-508).
T2 construct: endogenous in cells; host or cells: primary CF human bronchial epithelial (HBE) cells
The experiment in a line: Ussing chamber assay, chloride current in airway epithelial (HBE) cells expressing F508del. The class given is cell-based. On the procedure:
Ussing chamber experiments were performed on polarized airway epithelial cells expressing F508del to further characterize the F508del modulators identified in the optical assay above. Non-CF and CF airway epithelia were isolated from bronchial tissue, cultured using methods well known in the art, and plated onto Costar® Snapwell™ filters that were precoated with NIH3T3-conditioned media. After four days the apical media was removed and the cells were grown at an air liquid interface for >14 days prior to use. […] CF-HBE cells were isolated from patients homozygous for F508del (F508del/F508del-HBE) or heterozygous for F508del with a different disease causing mutation on the other allele.
HBE cells grown on Costar® Snapwell™ cell culture inserts were mounted in an Ussing chamber (Physiologic Instruments, Inc., San Diego, Calif.), and the transepithelial resistance and short-circuit current in the presence of a basolateral to apical Cl^− gradient (ISC) were measured using a voltage-clamp system (Department of Bioengineering, University of Iowa, IA). Briefly, HBE cells were examined under voltage-clamp recording conditions (Vhold=0 mV) at 37° C. […]
A basolateral to apical membrane Cl^− concentration gradient was set up as follows. […] Chloride current was measured to assess the increase in functional CFTR in the cell membrane.

Data set [3] is described as follows: Rat pharmacokinetics, single IV and oral dose. In kind it is in vivo. Particulars: male Sprague Dawley rats. On the procedure:
Compound 1 was also administered to male Sprague Dawley rats at single nominal oral dose (PO) of 3 mg/kg as a solution in 5% NMP, 30% PEG400, 10% TPGS, 5% PVP-K30 at 5 mL/kg dose volume.
The study design, sample tracking, data run design and individual plasma sample concentrations were stored using Watson LIMS software, Version 7.4.2 (Thermo Scientific Inc, Waltham, Mass.). Plasma concentration-time profiles of Compound 1 in Sprague Dawley rats at scheduled (nominal) sampling times were analyzed by noncompartmental pharmacokinetic methods using PK function within Watson LIMS software, Version 7.4.2 (Thermo Scientific Inc, Waltham, Mass.). Key pharmacokinetic parameters such as “area under the curve” (AUC), from the time of drug administration, time zero, extrapolated to infinity, clearance (CL), and Percent of oral bioavailability (% F) were determined. The AUC values were calculated using the linear trapezoidal rule.
In Table 21 below, Compound I is shown to have advantageous rat oral exposure (AUC) and oral bioavailability.

Another data set concerns the target F508del-CFTR protein (Homo sapiens, UniProt P13569, DEL508-508). Nature of the data set: CFTR processing and trafficking to the cell surface (Example 15). The class given is cell-based.
Another data set has as its target CFTR (Homo sapiens, UniProt P13569). Particulars: disclosed in PCT Application No. PCT/US2017/065425; read-out: EC50 as CFTR modulator; cited from earlier work.
A short description of data set [4]: Solid form assessment of Compound I (thermodynamic stability). The class given is physicochemical. Particulars: among solid forms of Compound I. From the text: In some embodiments, Compound I is Form A. In some embodiments, crystalline Form A is characterized by an X-ray powder diffractogram having a signal at least one two-theta value chosen from 6.6±0.2, 7.6±0.2, 9.6±0.2, 12.4±0.2, 13.1±0.2, 15.2±0.2, 16.4±0.2, 18.2±0.2, and 18.6±0.2. In some embodiments, crystalline Form A is characterized by an X-ray powder diffractogram having a signal at at least three two-theta values chosen from 6.6±0.2, 7.6±0.2, 9.6±0.2, 12.4±0.2, 13.1±0.2, 15.2±0.2, 16.4±0.2, 18.2±0.2, and 18.6±0.2. In some embodiments, crystalline Form A is characterized by an X-ray powder diffractograph having a signal at at least three two-theta values chosen from 6.6±0.2, 9.6±0.2, 13.1±0.2, 15.2±0.2, 18.2±0.2, and 18.6±0.2. In some embodiments, crystalline Form A is characterized by an X-ray powder diffractograph having a signal at three two-theta values of 6.6±0.2, 13.1±0.2, 18.2±0.2. In some embodiments, crystalline Form A is characterized by an X-ray powder diffractograph having a signal at six two-theta values of 6.6±0.2, 9.6±0.2, 13.1±0.2, 15.2±0.2, 18.2±0.2, and 18.6±0.2. In some embodiments, Crystalline Form A is characterized by an X-ray powder diffractogram substantially similar to that in FIG. 4A. In some embodiments, Crystalline Form A is characterized by an X-ray powder diffractogram substantially similar to that in FIG. 4B.

Data set [5] in a line: Bioavailability of crystalline Form A of Compound I. The class given is in vivo.

T2 sequence (P13569 with tags, fused parts or gaps DEL508-508): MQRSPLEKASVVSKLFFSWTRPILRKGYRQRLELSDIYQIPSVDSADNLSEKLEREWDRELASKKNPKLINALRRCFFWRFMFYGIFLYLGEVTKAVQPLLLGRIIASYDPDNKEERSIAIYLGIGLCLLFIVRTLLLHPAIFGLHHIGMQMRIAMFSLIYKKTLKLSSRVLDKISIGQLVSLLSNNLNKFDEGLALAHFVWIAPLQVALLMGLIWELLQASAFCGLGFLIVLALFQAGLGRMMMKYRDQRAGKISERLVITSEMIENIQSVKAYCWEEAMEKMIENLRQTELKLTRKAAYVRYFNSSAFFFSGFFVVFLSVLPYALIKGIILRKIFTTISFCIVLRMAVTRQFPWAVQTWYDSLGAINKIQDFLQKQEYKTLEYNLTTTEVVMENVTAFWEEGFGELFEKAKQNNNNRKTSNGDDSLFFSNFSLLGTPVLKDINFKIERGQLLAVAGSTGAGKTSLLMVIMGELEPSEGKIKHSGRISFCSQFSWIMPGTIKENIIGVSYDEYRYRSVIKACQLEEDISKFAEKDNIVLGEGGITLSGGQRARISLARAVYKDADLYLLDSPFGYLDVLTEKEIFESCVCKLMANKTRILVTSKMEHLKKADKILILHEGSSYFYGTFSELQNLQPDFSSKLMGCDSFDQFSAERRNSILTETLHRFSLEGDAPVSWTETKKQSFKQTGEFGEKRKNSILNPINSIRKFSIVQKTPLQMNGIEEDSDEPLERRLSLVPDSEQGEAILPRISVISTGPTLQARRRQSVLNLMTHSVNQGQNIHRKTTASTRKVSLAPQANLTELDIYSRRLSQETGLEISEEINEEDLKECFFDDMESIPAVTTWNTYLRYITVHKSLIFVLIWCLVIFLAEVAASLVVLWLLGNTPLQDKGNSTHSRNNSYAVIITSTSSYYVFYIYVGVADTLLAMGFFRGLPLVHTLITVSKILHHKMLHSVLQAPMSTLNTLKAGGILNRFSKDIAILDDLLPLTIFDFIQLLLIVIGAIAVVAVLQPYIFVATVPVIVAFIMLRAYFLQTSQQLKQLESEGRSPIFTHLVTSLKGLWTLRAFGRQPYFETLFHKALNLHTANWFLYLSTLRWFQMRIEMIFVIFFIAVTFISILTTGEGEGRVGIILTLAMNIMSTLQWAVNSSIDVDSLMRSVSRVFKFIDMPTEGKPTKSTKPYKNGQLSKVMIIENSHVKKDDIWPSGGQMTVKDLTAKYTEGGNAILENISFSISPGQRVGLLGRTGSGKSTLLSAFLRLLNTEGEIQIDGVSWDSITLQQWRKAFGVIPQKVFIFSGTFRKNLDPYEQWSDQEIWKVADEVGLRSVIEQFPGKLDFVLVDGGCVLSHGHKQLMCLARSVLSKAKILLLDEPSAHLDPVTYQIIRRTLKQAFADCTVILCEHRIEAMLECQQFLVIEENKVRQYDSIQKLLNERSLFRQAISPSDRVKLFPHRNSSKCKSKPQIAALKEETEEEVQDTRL
T1 sequence (P13569 with tags, fused parts or gaps DEL508-508): as above
F508del-CFTR protein, sequence (P13569 with tags, fused parts or gaps DEL508-508): as above

Usually EC50 stands for the concentration needed to bring the measured effect to its halfway point. The AUC is concentration integrated over time. For the molecule `Cc1nn(C)cc1S(=O)(=O)NC(=O)c1ccc(-n2ccc(OCC(C)(C)C(F)(F)F)n2)nc1N1C[C@@H](C)CC1(C)C` [Compound I, N-(1,3-dimethylpyrazol-4-yl)sulfonyl-6-[3-(3,3,3-trifluoro-2,2-dimethyl-propoxy)pyrazol-1-yl]-2-[(4 S)-2,2,4-trimethylpyrrolidin-1-yl]pyridine-3-carboxamide], the EC50 was less than 3000 nM in data set [1] (18-24 hours treatment), less than 2000 nM in data set [2] and 70 nM at CFTR. Besides, the Emax in data set [1] (relative to Compound II, read-out: % Efficacy relative to Compound II) was no less than 100%. In addition, the “HBE Max Eff (%)” value in data set [2] (% Efficacy) is recorded as “+++ (“+++” means >100%)”. Further, in data set [3] (PO 3 mg/kg), the “rat oral exposure (AUC)” value is “advantageous”. For the same molecule, the oral bioavailability entry in data set [3] (PO 3 mg/kg vs IV 3.0 mg/kg) is given as “advantageous”. The “Rat PO AUC/dose” value in data set [3] (single nominal oral dose 3 mg/kg, dose-normalised) came out at 9.4 ± 0.7 µg·h/mL/mg/kg. In data set [3] (rat, plasma, oral bioavailability, PO 3 mg/kg vs IV 3.0 mg/kg, read-out: Rat % F), the bioavailability stood at 84%. In addition, the clearance in data set [3] (rat, plasma, single nominal IV dose 3.0 mg/kg, read-out: Rat iv CL) worked out at 1.6 ± 0.4 mL/min/kg. For the same molecule, in data set [3] (rat, plasma, single nominal oral dose 3 mg/kg, AUC extrapolated to infinity), the exposure (AUC) is 23500 ± 1700 ng·h/mL. Also, at F508del-CFTR protein, the “CFTR corrector activity (processing and trafficking of F508del-CFTR, enhanced chloride transport)” value is “potent, efficacious, and selective”.

As for `Cc1nn(C)cc1S(=O)(=O)NC(=O)c1ccc(-n2ccc(OCC(C)(C)C(F)(F)F)n2)nc1N1C[C@@H](C)CC1(C)C` [Crystalline Form A, N-(1,3-dimethylpyrazol-4-yl)sulfonyl-6-[3-(3,3,3-trifluoro-2,2-dimethyl-propoxy)pyrazol-1-yl]-2-[(4 S)-2,2,4-trimethylpyrrolidin-1-yl]pyridine-3-carboxamide], in data set [4], the “thermodynamic stability of solid form” value is “most thermodynamically stable form”. In addition, the bioavailability entry in data set [5] is given as “good”.
